Reference: ChEMBL document CHEMBL1201862, “PubChem BioAssay data set” (2004)
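Values below derive from 48-hour exposures of cells grown in 96-well plates, with endpoints linearly interpolated between the two concentrations bracketing the appropriate inhibition level. At the GI50, growth is halved.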 The source made the active and inactive calls. Rule as the data show it: active = GI50 up to about 1.1 µM and inactive = higher.

How the values were obtained:
Assay in all cases: growth of human tumour cells (NCI), 48 h
T47D = tested on: T47D
UO-31 = tested on: UO-31
IGROV-1 = tested on: IGROV-1
K562 = tested on: K562
HCT-15 = tested on: HCT-15
UACC-62 = tested on: UACC-62
RXF 393 = tested on: RXF 393
DMS-273 = tested on: DMS-273
KM-20L2 = tested on: KM-20L2
PC-3 = tested on: PC-3
SK-MEL-28 = tested on: SK-MEL-28
SK-MEL-2 = tested on: SK-MEL-2
Malme-3M = tested on: Malme-3M
MDA-N = tested on: MDA-N
786-0 = tested on: 786-0
SNB-75 = tested on: SNB-75
SK-OV-3 = tested on: SK-OV-3
KM12 = tested on: KM12
HL-60 = tested on: HL-60
LOX IMVI = tested on: LOX IMVI
Hs-578T = tested on: Hs-578T
HCC 2998 = tested on: HCC 2998
HOP-62 = tested on: HOP-62
SN12C = tested on: SN12C
U-251 = tested on: U-251
RPMI-8226 = tested on: RPMI-8226
DU-145 = tested on: DU-145
COLO 205 = tested on: COLO 205
MDA-MB-231 = tested on: MDA-MB-231
SNB-19 = tested on: SNB-19
TK-10 = tested on: TK-10
OVCAR-5 = tested on: OVCAR-5
XF498 = tested on: XF498
NCI-H23 = tested on: NCI-H23
BT-549 = tested on: BT-549
A549 = tested on: A549
HOP-18 = tested on: HOP-18
M14 = tested on: M14
CAKI-1 = tested on: CAKI-1
NCI/ADR-RES = tested on: NCI/ADR-RES
CCRF-CEM = tested on: CCRF-CEM
SW-620 = tested on: SW-620
A498 = tested on: A498
DMS-114 = tested on: DMS-114
NCI-H226 = tested on: NCI-H226
NCI-H460 = tested on: NCI-H460
LXFL 529 = tested on: LXFL 529
UACC-257 = tested on: UACC-257
RXF 631 = tested on: RXF 631
DLD-1 = tested on: DLD-1
SF-268 = tested on: SF-268
HCT-116 = tested on: HCT-116
SF-295 = tested on: SF-295
HT-29 = tested on: HT-29
SF-539 = tested on: SF-539
NCI-H522 = tested on: NCI-H522
OVCAR-8 = tested on: OVCAR-8
SR = tested on: SR
MOLT-4 = tested on: MOLT-4
ACHN = tested on: ACHN
EKVX = tested on: EKVX
SK-MEL-5 = tested on: SK-MEL-5
OVCAR-3 = tested on: OVCAR-3
MDA-MB-435 = tested on: MDA-MB-435
MCF7 = tested on: MCF7
HOP-92 = tested on: HOP-92
OVCAR-4 = tested on: OVCAR-4
M19-MEL = tested on: M19-MEL
SNB-78 = tested on: SNB-78

With CCN(CC)CCCNc1ccc2nnn3c4ccc(O)cc4c(=O)c1c23 the GI50 (T47D) was 22.3 µM (inactive), the GI50 (UO-31) was 0.968 µM (active) and the GI50 (IGROV-1) was 4.86 µM (inactive). The GI50 (K562) was 7.23 µM (inactive), the GI50 (HCT-15) was 5.06 µM and the GI50 (UACC-62) was 16.6 µM (inactive). For the same compound, the GI50 (RXF 393) was 1.64 µM (inactive), the GI50 (DMS-273) was 3.44 µM (inactive) and the GI50 (KM-20L2) was 5.3 µM (inactive). The GI50 (PC-3) was 6.5 µM (inactive), the GI50 (SK-MEL-28) was 18 µM (inactive) and the GI50 (SK-MEL-2) was 15.1 µM (inactive). For the same compound, the GI50 (Malme-3M) was 13.1 µM (inactive), the GI50 (MDA-N) was 8.71 µM (inactive) and the GI50 (786-0) was 5.71 µM (inactive). The GI50 (SNB-75) was 7.48 µM (inactive), the GI50 (SK-OV-3) was 8.87 µM (inactive) and the GI50 (KM12) was 6.61 µM (inactive). For the same compound, the GI50 (HL-60) was 5.55 µM (inactive), the GI50 (LOX IMVI) was 2.9 µM (inactive) and the GI50 (Hs-578T) was 14.4 µM (inactive). The GI50 (HCC 2998) was 9.06 µM (inactive), the GI50 (HOP-62) was 10.7 µM (inactive) and the GI50 (SN12C) was 5.57 µM (inactive). The GI50 (U-251) was 2.33 µM (inactive), the GI50 (RPMI-8226) was 3.28 µM (inactive) and the GI50 (DU-145) was 11.9 µM (inactive). For the same compound, the GI50 (COLO 205) was 2.81 µM (inactive), the GI50 (MDA-MB-231) was 7.74 µM (inactive) and the GI50 (SNB-19) was 10.1 µM (inactive). The GI50 (TK-10) was 3.28 µM (inactive), the GI50 (OVCAR-5) was 13.8 µM (inactive) and the GI50 (XF498) was 15.5 µM (inactive). The GI50 (NCI-H23) was 11.2 µM (inactive), the GI50 (BT-549) was 14 µM (inactive) and the GI50 (A549) was 1.58 µM (inactive). For the same compound, the GI50 (HOP-18) was 14.3 µM (inactive), the GI50 (M14) was 9.27 µM (inactive) and the GI50 (CAKI-1) was 4.08 µM (inactive). The GI50 (NCI/ADR-RES) was 7.14 µM (inactive), the GI50 (CCRF-CEM) was 2.29 µM (inactive) and the GI50 (SW-620) was 2.69 µM (inactive). The GI50 (A498) was 8.97 µM (inactive), the GI50 (DMS-114) was 11.7 µM (inactive) and the GI50 (NCI-H226) was 6.87 µM (inactive). The GI50 (NCI-H460) was 0.653 µM (active), the GI50 (LXFL 529) was 7.67 µM (inactive) and the GI50 (UACC-257) was 17.9 µM (inactive). The GI50 (RXF 631) was 1.88 µM (inactive), the GI50 (DLD-1) was 3.48 µM (inactive) and the GI50 (SF-268) was 5.3 µM (inactive). The GI50 (HCT-116) was 1.15 µM (inactive), the GI50 (SF-295) was 9.51 µM (inactive) and the GI50 (HT-29) was 2.65 µM (inactive). For the same compound, the GI50 (SF-539) was 10.3 µM (inactive), the GI50 (NCI-H522) was 3.05 µM (inactive) and the GI50 (OVCAR-8) was 2.97 µM (inactive). The GI50 (SR) was 1.69 µM (inactive), the GI50 (MOLT-4) was 0.385 µM (active) and the GI50 (ACHN) was 3.34 µM (inactive). The GI50 (EKVX) was 16.1 µM (inactive), the GI50 (SK-MEL-5) was 7.55 µM (inactive) and the GI50 (OVCAR-3) was 11.4 µM (inactive). The GI50 (MDA-MB-435) was 10.2 µM (inactive), the GI50 (MCF7) was 14 µM (inactive) and the GI50 (HOP-92) was 14.6 µM (inactive). For the same compound, the GI50 (OVCAR-4) was 6.35 µM (inactive), the GI50 (M19-MEL) was 13.8 µM (inactive) and the GI50 (SNB-78) was 16.4 µM (inactive).
